Reference: paper PMC6483092 (ACS infectious diseases, 2019)

Legend:
[1] = test system: HIV-1IIIB (wild-type); settings: HIV-1IIIB strain (wild-type virus)
[2] = test system: HIV-1; settings: as described in the literature; cited from earlier work

Compound	IC50 times lower than enfuvirtide [1] [times]	IC90 times lower than enfuvirtide [1] [times]	IC50 [2] [nM]
CC[C@H](C)[C@H](NC(=O)[C@H](CC(C)C)NC(=O)[C@H](CO)NC(=O)[C@H](Cc1c[nH]cn1)NC(=O)[C@@H](NC(=O)[C@H](CC(C)C)NC(=O)[C@H](CO)NC(=O)[C@@H](NC(=O)[C@H](Cc1ccc(O)cc1)NC(=O)[C@H](CC(N)=O)NC(=O)[C@H](CC(N)=O)NC(=O)[C@@H](NC(=O)[C@H](CCC(=O)O)NC(=O)[C@H](CCCNC(=N)N)NC(=O)[C@H](CC(=O)O)NC(=O)[C@H](Cc1c[nH]c2ccccc12)NC(=O)[C@H](CCC(=O)O)NC(=O)[C@H](CCSC)NC(=O)[C@H](Cc1c[nH]c2ccccc12)NC(C)=O)[C@@H](C)CC)[C@@H](C)O)[C@@H](C)CC)C(=O)N[C@@H](CCC(=O)O)C(=O)N[C@@H](CCC(=O)O)C(=O)N[C@@H](CO)C(=O)N[C@@H](CCC(N)=O)C(=O)N[C@@H](CC(N)=O)C(=O)N[C@@H](CCC(N)=O)C(=O)N[C@@H](CCC(N)=O)C(=O)N[C@@H](CCC(=O)O)C(=O)N[C@@H](CCCCN)C(=O)N[C@@H](CC(N)=O)C(=O)N[C@@H](CCC(=O)O)C(=O)N[C@@H](CCC(N)=O)C(=O)N[C@@H](CCC(=O)O)C(=O)N[C@@H](CC(C)C)C(=O)N[C@@H](CC(C)C)C(=O)NCC(=O)N[C@@H](CO)C(=O)NCC(=O)N[C@@H](CSCC(=O)O[C@H]1CC[C@@]2(C)C(=CC[C@H]3[C@@H]4CC[C@H]([C@H](C)CCCC(C)(C)O)[C@@]4(C)CC[C@@H]32)C1)C(N)=O [C34-HC]	25	40	
WMEWDREINNYTSL-IHSLIEESQNQQEKNEQELL [C34]			1.4
